The values below come from US20100233086A1, “COMPOUNDS FOR USE IN IMAGING, DIAGNOSING AND/OR TREATMENT OF DISEASES OF THE CENTRAL NERVOUS SYSTEM OR OF TUMORS” (priority 2007, published 2010).

Entries after “also recorded” stand apart in the source; their conditions may differ.

The nature of data set [1]: PET brain uptake (time activity curves, SUV) in cynomolgus monkey. As to conditions: same monkey.
A short description of data set [2]: Plasma radioactivity and plasma metabolites in cynomolgus monkey. In kind it is in vivo. An excerpt: Plasma radioactivity profiles have been monitored over time. […] In addition, metabolites occurring in plasma over time have been monitored (FIGS. 8 and 9) for both ligands.
Data set [3] can be described thus: Biodistribution in NMRI mice (gamma counter). In kind it is in vivo. As to conditions: 0.178 MBq injected, decay corrected. How it is done: For each time point 3 mice have been used. The mice were injected each with 0.178 MBq[^18F]compound 13. After the respective time points the mice were sacrificed, the organs taken out and measured in a gamma counter. The results were decay corrected.

A further data set concerns the target T1, MAO B (Homo sapiens, UniProt P27338).
T1 construct: investigated on human brain sections from patients with Alzheimer's disease and normal controls; from tissue; host or cells: human brain sections (Alzheimer's disease patients and normal controls)
T1 sequence (P27338 1-520): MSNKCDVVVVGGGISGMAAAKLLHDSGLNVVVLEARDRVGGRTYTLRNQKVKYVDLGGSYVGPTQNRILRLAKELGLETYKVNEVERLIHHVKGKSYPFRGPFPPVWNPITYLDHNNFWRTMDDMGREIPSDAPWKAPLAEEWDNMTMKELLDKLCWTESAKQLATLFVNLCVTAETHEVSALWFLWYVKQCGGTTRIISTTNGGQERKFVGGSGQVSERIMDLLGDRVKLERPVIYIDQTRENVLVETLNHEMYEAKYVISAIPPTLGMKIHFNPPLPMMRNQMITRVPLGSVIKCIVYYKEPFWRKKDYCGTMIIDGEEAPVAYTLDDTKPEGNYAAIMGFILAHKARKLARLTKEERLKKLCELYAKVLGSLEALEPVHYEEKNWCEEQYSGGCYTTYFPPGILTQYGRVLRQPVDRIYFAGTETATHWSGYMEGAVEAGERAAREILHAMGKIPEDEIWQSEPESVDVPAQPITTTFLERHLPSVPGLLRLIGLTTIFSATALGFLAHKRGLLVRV
Description: Autoradiography of [^18F]compound 13 on human brain sections (Alzheimer's disease), blocking with MAO B inhibitors. In kind it is binding. How it is done:
Thereafter, the slides were removed and brought to room temperature. […] The sections were dipped two times into ice cold distilled water, dried at room temperature and exposed to PhosphorImanger plates (FUJI BAS 5000) over night. For detection of the specificity of the signals an excess (10 μM) of Deprenyl, Pargylin (both for MAO B) and Clorgyline (for MAO A), respectively, was used. After exposure, the sections were immunohistochemically stained using a standard protocol with an anti-GFAP antibody to detect reactive astrocytes. Amyloid B plaques were detected with BAY 949172 (Rowe CC et al. Lancet Neutol 2008; 7: 129-135) using the binding protocol as described above.

For data set [4] the following is noted: reported in the literature; cited from earlier work.

Turning to `C#CCN(C)[C@H](C[18F])Cc1ccccc1` [[^18F]compound 13, N-[(2S)-1-(^18F)fluoro-3-phenylpropan-2-yl]-N-methylprop-2-yn-1-amine], in data set [1], the “uptake and enrichment in specific regions, e.g. striatum, higher than [^11C]Deprenyl” value is recorded as “about 10%”. Besides, the “metabolic stability compared to [^11C]Deprenyl (and compound 5)” value in data set [2] (plasma metabolites) was “improved metabolic stability; also recorded: more stable”. Further, in data set [2] (plasma over time), the “generation of metabolite b in plasma (level)” value is recorded as “around 10%”. For the same compound, in data set [3] (2 min p.i.), the “brain uptake of radioactivity” value is recorded as 7.5 ± 0.04 % ID/g. For the same compound, the radioactivity in brain worked out at 2.10±0.33 % ID/g in data set [3] (30 min p.i.) and 1.34±0.26 % ID/g in data set [3] (after 4 hours). Besides, at MAO B (Alzheimer's disease brain slices, amyloid detected with BAY 949172), the “relation of autoradiographic signal density and intensity to amyloid β pathology” value is “corresponds with the amyloid β plaque load”. The “autoradiographic signal blocked with deprenyl” value at MAO B (human Alzheimer's disease brain slices, 10 Bq/μl tracer, excess (10 μM) of Deprenyl) is on record as “could be blocked; also recorded: completely blocked”. For the same compound, the “autoradiographic signal blocked with pargylin” value at MAO B (human Alzheimer's disease brain slices, 10 Bq/μl tracer, excess (10 μM) of Pargylin) was “could be blocked”. Besides, the “relation of autoradiographic signal to reactive astrocytes (GFAP immunoreactivity)” value on MAO B (human brain slice from a patient with AD, anti-GFAP staining) was “correspondence of the autoradiographic signal to reactive astrocytes is demonstrated”.
Take `C#CCN(C)CCCCCC[18F]` [compound 5]: the degradation to metabolite result in data set [4] is “degraded quickly towards a polar [^18F]-labelled metabolite”.
